Measurements: patent US20220151292A1, “NICOTINE POUCH COMPOSITION” (NCP NextGen A/S, priority 2020, published 2022)

Columns and labels:
Format in all cases: physicochemical
[1] = Release experiment: nicotine released from NPR (16%) in water with varying equivalents of MgCl2 (Example 6C); settings: nicotine 28 mg/L, 25 degrees Celsius, 100 rpm, HPLC
Protocol: (§1) The release experiment was performed by adding NPR (16%) and varying equivalents of MgCl2 to a volume of water corresponding to a nicotine concentration of 28 mg/L. The equivalents of MgCl2 are relative to nicotine. The temperature of the water was 25 degrees Celsius throughout the experiment and stirring of 100 rpm was applied throughout the experiment. pH was measured at experiment start and end. The pH was in all experiments below 7.0 at both the start and end of the experiment.
(§2) A relative low nicotine concentration is used in order to reduce the impact of equilibrium on both the release rate and effective release of nicotine from the ion-exchange resin.
(§3) Samples were taken out at varying timepoints and analyzed for nicotine content using standard HPLC. The result is presented as percentage of nicotine released.

[2] = Release experiment: nicotine released from NPR (16%) in water with 1 equivalent of AlCl3 (Example 6E); settings: 1 equivalent AlCl3, water, nicotine 28 mg/L, 25 degrees Celsius, 150 rpm, HPLC
Protocol: as §1, with “1 equivalent” for “varying equivalents”, “AlCl3” for “MgCl2”, “equivalents” for “equivalents of MgCl2”, “150” for “100”
as §2, §3

[3] = Release experiment: nicotine released from NPR (16%) in water with varying salts (CaCl2, NaCl) and equivalents (Example 6A); settings: NPR (16%) in 900 mL water, nicotine 28 mg/L, 25 degrees Celsius, 100 rpm, HPLC
[4] = Release experiment: nicotine released from NPR (16%) in water with varying equivalents of CaCl2 (Example 6B); settings: nicotine 28 mg/L, 25 degrees Celsius, 100 rpm, HPLC
Protocol: as §1, with “varying equivalent” for “varying equivalents”, “of CaCl2” for “of MgCl2”
as §2, §3

[5] = Release experiment: nicotine released from nicotine premixes of varying nicotine content with 1 equivalent of CaCl2 (Example 6D); settings: nicotine premix, 1 equivalent CaCl2, water, nicotine 28 mg/L, 25 degrees Celsius, 150 rpm, HPLC
Protocol: The release experiment was performed by adding nicotine premix having varying content of nicotine and 1 equivalent of CaCl2 to a volume of water, whereby a corresponding nicotine concentration of 28 mg/L is obtained. The equivalent of CaCl2 is relative to nicotine. The temperature of the water was 25 degrees Celsius throughout the experiment and stirring of 150 rpm was applied throughout the experiment. pH was measured at experiment start and end. The pH was in all experiments below 7.0 at both the start and end of the experiment.
as §2, §3

Question: With [Cl-].[Cl-].[Mg+2] [MgCl2] as the compound, how does the “effect of MgCl2 on release of nicotine from NPR” value [1] read?
Answer: significantly increases the release of nicotine

Question: Which “effect of AlCl3 on release of nicotine from NPR” value [2] does the source give for [Cl][Al]([Cl])[Cl] [AlCl3] here?
Answer: significantly increases the release of nicotine

Question: Which “effect of the salt on release of nicotine from NPR” value [3] does the source give for [Ca+2].[Cl-].[Cl-] [CaCl2] here?
Answer: significantly increases the release of nicotine

Question: What about the “effect of CaCl2 on release of nicotine from NPR” value [4] of the same compound?
Answer: significantly increases the release of nicotine

Question: What about the “effect of CaCl2 on release of nicotine from premixes” value [5] of the same compound?
Answer: significantly increases the release of nicotine

Question: For [Cl-].[Na+] [NaCl, reference compound], which “effect of the salt on release of nicotine from NPR” value [3] is on record?
Answer: much lower effect on the release of nicotine
